Results reported in ChEMBL document CHEMBL3885861, “Open TG-GATES”.

Organism: Rattus norvegicus
Test: Open TG-GATES - Regimen: Daily Repeat
Assay type: toxicity, organism-based, Sprague-Dawley
Set-up: regimen Daily Repeat, gender Male, age 6 weeks
Conditions: in vivo, po, 10 mg/kg, route gavage, dose level Low; for APTT / Bas / Eos / Fbg / Hb / Ht / Lym / MCH / MCHC / MCV / Mono / Neu / PT / Plat / RBC / Ret / WBC: tissue Blood
[1] = 72 h, tissue Kidney, time 3 day
[2] = 72 h, tissue Plasma, time 3 day

Structure (SMILES): CN(C)CCN(Cc1cccs1)c1ccccn1
- TERMINAL_BW (72 h, time 3 day): 219.5 g
- APTT (72 h, time 3 day): 21.1 s
- Bas (72 h, time 3 day): 0%
- Eos (72 h, time 3 day): 0.8%
- Fbg (72 h, time 3 day): 343 mg/dL
- Hb (72 h, time 3 day): 13 g/dL
- Ht (72 h, time 3 day): 39.1%
- Lym (72 h, time 3 day): 79%
- MCH (72 h, time 3 day): 21.6 pg
- MCHC (72 h, time 3 day): 33.2%
- MCV (72 h, time 3 day): 65 fL
- Mono (72 h, time 3 day): 1.6%
- Neu (72 h, time 3 day): 18%
- PT (72 h, time 3 day): 16 s
- Plat (72 h, time 3 day): 116.7 x10_4/uL
- RBC (72 h, time 3 day): 603.4 x10_4/ul
- Ret (72 h, time 3 day): 7%
- WBC (72 h, time 3 day): 85.5 x10_2/uL
- KIDNEY_L [1]: 1 g
- KIDNEY_R [1]: 1 g
- KIDNEY_TOTAL [1]: 2 g
- LIVER (72 h, tissue Liver, time 3 day): 10.9 g
- A/G [2]: 1.1
- ALP [2]: 1503.8 IU/L
- ALT [2]: 43.2 IU/L
- AST [2]: 72.2 IU/L
- BUN [2]: 16.8 mg/dL
- CRE [2]: 0.2 mg/dL
- Ca [2]: 10.9 mg/dL
- Cl [2]: 107 meq/L
- DBIL [2]: 0 mg/dL
- GLC [2]: 188.2 mg/dL
- IP [2]: 7.8 mg/dL
- K [2]: 4.2 meq/L
- LDH [2]: 181 IU/L
- Na [2]: 143.6 meq/L
- PL [2]: 149.8 mg/dL
- RALB [2]: 2.9 g/dL
- TBIL [2]: 0.006 mg/dL
- TC [2]: 80.6 mg/dL
- TG [2]: 108.2 mg/dL
- TP [2]: 5.6 g/dL
- gamma-GTP [2]: 1.2 IU/L
- TERMINAL_BW ([…], time 7 day): 229.9 g
- TERMINAL_BW ([…], time 14 day): 284.8 g
- TERMINAL_BW ([…], time 28 day): 353.5 g
- APTT ([…], time 7 day): 22.1 s
- Bas ([…], time 7 day): 0%
- Eos ([…], time 7 day): 1%
- Fbg ([…], time 7 day): 323.4 mg/dL
- Hb ([…], time 7 day): 13.7 g/dL
- Ht ([…], time 7 day): 40.5%
- Lym ([…], time 7 day): 82.8%
- MCH ([…], time 7 day): 20.8 pg
- MCHC ([…], time 7 day): 33.8%
- MCV ([…], time 7 day): 61.6 fL
- Mono ([…], time 7 day): 2%
- Neu ([…], time 7 day): 13.2%
- PT ([…], time 7 day): 16.4 s
- Plat ([…], time 7 day): 120.4 x10_4/uL
- RBC ([…], time 7 day): 658 x10_4/ul
- Ret ([…], time 7 day): 4.8%
- WBC ([…], time 7 day): 113.4 x10_2/uL
- APTT ([…], time 14 day): 21.3 s
- Bas ([…], time 14 day): 0%
- Eos ([…], time 14 day): 0.6%
- Fbg ([…], time 14 day): 297.6 mg/dL
- Hb ([…], time 14 day): 14.3 g/dL
- Ht ([…], time 14 day): 42.1%
- Lym ([…], time 14 day): 83.6%
- MCH ([…], time 14 day): 20.8 pg
- MCHC ([…], time 14 day): 34%
- MCV ([…], time 14 day): 61.1 fL
- Mono ([…], time 14 day): 1.6%
- Neu ([…], time 14 day): 13.2%
- PT ([…], time 14 day): 16.2 s
- Plat ([…], time 14 day): 116 x10_4/uL
- RBC ([…], time 14 day): 689.4 x10_4/ul
- Ret ([…], time 14 day): 4.6%
- WBC ([…], time 14 day): 120.5 x10_2/uL
- APTT ([…], time 28 day): 22.8 s
- Bas ([…], time 28 day): 0%
- Eos ([…], time 28 day): 1.2%
- Fbg ([…], time 28 day): 307.8 mg/dL
- Hb ([…], time 28 day): 15.3 g/dL
- Ht ([…], time 28 day): 44.4%
